Measured values taken from PMC8580996, “2-Oxoglutarate derivatives can selectively enhance or inhibit the activity of human oxygenases” (Nature Communications, 2021).
Values joined by “and” are separate entries in the source; they are usually repeats but may differ in a detail not shown here. Equal values may be shown once.

Assays:
FIH [1] = target: T1, FIH (Homo sapiens, UniProt Q9NWT6); experiment: SPE-MS FIH turnover (cosubstrate) assay in the absence of 2OG; assay type: biochemical; conditions: 330 μM 2OG or 2OG derivative, no 2OG, t = 15 min
Summary of the method: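 With 2OG omitted, 2OG analogues were tested as cosubstrates for recombinant FIH, and +16 Da hydroxylated product versus remaining substrate was monitored by C4 solid-phase extraction coupled to MS. Percent conversion came from product integral over summed substrate and product integrals.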

FIH [2] = target: T1, FIH; experiment: Competition assay in a single reaction vessel, FIH-catalyzed hydroxylation (SPE-MS); assay type: biochemical
AspH [3] = target: T2, AspH (Homo sapiens, UniProt Q12797); experiment: Competition assay in a single reaction vessel, AspH-catalyzed hydroxylation (SPE-MS); assay type: biochemical; conditions: for substrate hydroxylation (% conversion): AspH
T2 construct: the tetratricopeptide repeat domain (His6-AspH315-758), was produced and purified as previously reported; made in house
T2 sequence (Q12797 315-758): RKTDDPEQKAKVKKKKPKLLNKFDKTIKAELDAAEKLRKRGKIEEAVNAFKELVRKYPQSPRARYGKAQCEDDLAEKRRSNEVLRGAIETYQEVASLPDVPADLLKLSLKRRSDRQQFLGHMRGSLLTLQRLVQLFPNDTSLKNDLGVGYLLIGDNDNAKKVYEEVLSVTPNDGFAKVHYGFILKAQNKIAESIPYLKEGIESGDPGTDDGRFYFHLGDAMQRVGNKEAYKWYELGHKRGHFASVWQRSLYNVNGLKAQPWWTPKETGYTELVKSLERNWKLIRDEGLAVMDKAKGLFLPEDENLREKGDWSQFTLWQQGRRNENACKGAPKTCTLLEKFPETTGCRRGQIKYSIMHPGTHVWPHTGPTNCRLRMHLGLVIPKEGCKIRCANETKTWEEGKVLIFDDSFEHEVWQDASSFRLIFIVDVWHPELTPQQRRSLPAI

AspH [4] = target: T2, AspH; design: method as in PMID 34163896; conditions: hFX-CP101–119 substrate, 330 μM 2OG or 2OG derivative, t = 15 min; cited from earlier work
[5] = Fig 2e, 20 μM 12 and 100 μM 2OG

T1 sequence (Q9NWT6 whole entry): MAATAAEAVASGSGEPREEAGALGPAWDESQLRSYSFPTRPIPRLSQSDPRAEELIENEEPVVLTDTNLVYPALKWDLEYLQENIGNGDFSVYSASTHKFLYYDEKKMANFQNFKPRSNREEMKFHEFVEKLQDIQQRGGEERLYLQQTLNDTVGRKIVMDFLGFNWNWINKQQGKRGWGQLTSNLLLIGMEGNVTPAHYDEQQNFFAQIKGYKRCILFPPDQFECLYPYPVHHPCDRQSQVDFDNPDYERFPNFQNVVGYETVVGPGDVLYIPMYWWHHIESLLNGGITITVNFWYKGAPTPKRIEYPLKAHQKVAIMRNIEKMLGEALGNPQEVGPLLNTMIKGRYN

## CC(CC(=O)C(=O)O)C(=O)O (stereo not shown) [compound 12, 4-methyl-2OG]
FIH [1]; CA1–20 substrate
  FIH activity, %-substrate conversion: ~80%
FIH [1]; HIF-1α788–822 substrate
  FIH activity, %-substrate conversion: ~45%
FIH [2]; [5]
  FIH-catalyzed CA1–20 conversion: ~ 90%
FIH [2]; Fig 2e, 20 μM 12 and 100 μM 2OG, FIH, 0 min
  substrate hydroxylation (% conversion): 15.3987 and 14.8576 and 13.209
FIH [2]; Fig 2e, 20 μM 12 and 100 μM 2OG, FIH, 0.237833 min
  substrate hydroxylation (% conversion): 27.0539 and 26.3778 and 23.9445
FIH [2]; Fig 2e, 20 μM 12 and 100 μM 2OG, FIH, 0.478833 min
  substrate hydroxylation (% conversion): 35.9286 and 35.8922 and 32.7293
FIH [2]; Fig 2e, 20 μM 12 and 100 μM 2OG, FIH, 0.717 min
  substrate hydroxylation (% conversion): 45.1159 and 43.9873 and 41.1347
FIH [2]; Fig 2e, 20 μM 12 and 100 μM 2OG, FIH, 0.956333 min
  substrate hydroxylation (% conversion): 51.8274
FIH [2]; Fig 2e, 20 μM 12 and 100 μM 2OG, FIH, 1.43767 min
  substrate hydroxylation (% conversion): 63.7405 and 62.295 and 59.0531
FIH [2]; Fig 2e, 20 μM 12 and 100 μM 2OG, FIH, 1.67667 min
  substrate hydroxylation (% conversion): 68.2711 and 66.7748 and 63.7338
FIH [2]; Fig 2e, 20 μM 12 and 100 μM 2OG, FIH, 1.918 min
  substrate hydroxylation (% conversion): 71.9325 and 70.2648 and 67.9993
FIH [2]; Fig 2e, 20 μM 12 and 100 μM 2OG, FIH, 2.15883 min
  substrate hydroxylation (% conversion): 75.384 and 73.508 and 70.5367
FIH [2]; Fig 2e, 20 μM 12 and 100 μM 2OG, FIH, 2.6405 min
  substrate hydroxylation (% conversion): 81.0929 and 78.2797 and 76.6153
FIH [2]; Fig 2e, 20 μM 12 and 100 μM 2OG, FIH, 2.88117 min
  substrate hydroxylation (% conversion): 82.6978 and 80.7392 and 78.6776
FIH [2]; Fig 2e, 20 μM 12 and 100 μM 2OG, FIH, 3.12267 min
  substrate hydroxylation (% conversion): 85.0838 and 82.5241 and 80.8532
FIH [2]; Fig 2e, 20 μM 12 and 100 μM 2OG, FIH, 3.36583 min
  substrate hydroxylation (% conversion): 85.9652 and 84.4207 and 82.727
FIH [2]; Fig 2e, 20 μM 12 and 100 μM 2OG, FIH, 3.60733 min
  substrate hydroxylation (% conversion): 87.7923 and 85.7936 and 83.2563
FIH [2]; Fig 2e, 20 μM 12 and 100 μM 2OG, FIH, 3.849 min
  substrate hydroxylation (% conversion): 88.932 and 84.1653 and 80.7905
FIH [2]; Fig 2d, 20 μM 12, FIH, 0 min
  substrate hydroxylation (% conversion): 8.164 and 7.161 and 7.808
FIH [2]; Fig 2d, 20 μM 12, FIH, 0.707167 min
  substrate hydroxylation (% conversion): 31.5759 and 26.6674 and 29.4313
FIH [2]; Fig 2d, 20 μM 12, FIH, 1.41317 min
  substrate hydroxylation (% conversion): 48.4989 and 42.8597 and 46.6007
FIH [2]; Fig 2d, 20 μM 12, FIH, 2.12133 min
  substrate hydroxylation (% conversion): 61.9239 and 55.8625 and 59.591
FIH [2]; Fig 2d, 20 μM 12, FIH, 2.822 min
  substrate hydroxylation (% conversion): 71.1548 and 65.8729 and 69.0603
FIH [2]; Fig 2d, 20 μM 12, FIH, 3.52117 min
  substrate hydroxylation (% conversion): 77.6139 and 72.8151 and 76.4316
FIH [2]; Fig 2d, 20 μM 12, FIH, 4.22083 min
  substrate hydroxylation (% conversion): 82.6095 and 78.8355 and 81.4405
FIH [2]; Fig 2d, 20 μM 12, FIH, 4.9205 min
  substrate hydroxylation (% conversion): 86.3253 and 83.0223 and 85.6621
FIH [2]; Fig 2d, 20 μM 12, FIH, 5.62167 min
  substrate hydroxylation (% conversion): 89.1149 and 86.1539 and 88.6579
FIH [2]; Fig 2d, 20 μM 12, FIH, 6.3215 min
  substrate hydroxylation (% conversion): 91.4092 and 88.7795 and 90.8352
FIH [2]; Fig 2d, 20 μM 12, FIH, 7.02117 min
  substrate hydroxylation (% conversion): 93.1171 and 89.921 and 92.1057
FIH [2]; Fig 2d, 20 μM 12, FIH, 7.724 min
  substrate hydroxylation (% conversion): 94.3469 and 91.6232 and 93.2231
FIH [2]; Fig 2d, 20 μM 12, FIH, 8.42383 min
  substrate hydroxylation (% conversion): 95.3806 and 92.9188 and 94.5877
FIH [2]; Fig 2d, 20 μM 12, FIH, 9.1255 min
  substrate hydroxylation (% conversion): 96.194 and 94.1363 and 95.5545
FIH [2]; Fig 2d, 20 μM 12, FIH, 9.83 min
  substrate hydroxylation (% conversion): 97.3851 and 94.9972 and 96.1755
FIH [2]; Fig 2d, 20 μM 12, FIH, 10.5315 min
  substrate hydroxylation (% conversion): 98.7917 and 94.9441 and 95.9828
FIH [2]; Fig 2d, 20 μM 12, after ~5 min
  FIH-catalyzed CA1–20 hydroxylation: ~ 90%
AspH [3]; [5]
  time to complete AspH-catalyzed hydroxylation of hFX-EGFD1_86–124-4Ser: ~ 2 min
AspH [3]; Fig 2e, 20 μM 12 and 100 μM 2OG, 1.918 min
  substrate hydroxylation (% conversion): 100
AspH [3]; Fig 2e, 20 μM 12 and 100 μM 2OG, 2.15883 min
  substrate hydroxylation (% conversion): 100
AspH [3]; Fig 2e, 20 μM 12 and 100 μM 2OG, 2.6405 min
  substrate hydroxylation (% conversion): 100
AspH [3]; Fig 2e, 20 μM 12 and 100 μM 2OG, 2.88117 min
  substrate hydroxylation (% conversion): 100
AspH [3]; Fig 2e, 20 μM 12 and 100 μM 2OG, 3.12267 min
  substrate hydroxylation (% conversion): 100
AspH [3]; Fig 2e, 20 μM 12 and 100 μM 2OG, 3.36583 min
  substrate hydroxylation (% conversion): 100
AspH [3]; Fig 2e, 20 μM 12 and 100 μM 2OG, 3.60733 min
  substrate hydroxylation (% conversion): 100
AspH [3]; Fig 2e, 20 μM 12 and 100 μM 2OG, […]
  substrate hydroxylation (% conversion): 100
AspH [3]; Fig 2d, 20 μM 12, after ~10 min
  AspH-catalyzed hFX-EGFD1_86–124-4Ser hydroxylation: ~ 90%
AspH [4]
  AspH activity, %-substrate conversion: ~10%
